The text below walks through data of the supplement of paper PMC11061612.

Holding throughout (test): combination Emax (second highest fraction inhibited in the dose matrix, 72 h); higher = more inhibition; extreme values may be limits of the assay
Experiment [1] concerns A704 (Kidney Carcinoma). In outline:
(§1)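 After 24 hours at 37°C and 5% CO2 in 1536-well plates, cells in DMEM/F12 or RPMI plus 10% FBS received two-drug dose matrices for 72 hours. Viability came from CellTiter-Glo 2.0 luminescence and was scaled as inhibition, anchored at 0 by vehicle wells and at 1 by blank wells. Combination Emax is taken as the second-highest inhibition in the matrix, and Bliss excess as the observed combination effect less EA + EB − EA·EB, with EA and EB the single-agent effects.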

The subject of experiment [2] is ASH-3 (Thyroid Gland Carcinoma). In outline:
as §1

The subject of experiment [3] is BT-20 (Breast Carcinoma). The gist of the method: as §1
For experiment [4], the system named is EBC-1 (Squamous Cell Lung Carcinoma). In outline: as §1
Experiment [5] concerns EW-18 (Ewing's Sarcoma). The gist of the method: as §1
For experiment [6], the system named is GOTO (Neuroblastoma). The gist of the method: as §1
In experiment [7] the test system is HC-1 (Other Blood Carcinomas). In outline: as §1
Experiment [8] deals with HuP-T3 (Pancreatic Carcinoma). The gist of the method:
as §1

Experiment [9] relates to JHH-7 (Hepatocellular Carcinoma). The gist of the method:
as §1

For experiment [10], the system named is KINGS-1 (Low Grade Glioma). In outline:
as §1

The subject of experiment [11] is KLE (Endometrial Carcinoma). The gist of the method:
as §1

Experiment [12] deals with NCI-H2347 (Lung Adenocarcinoma). In outline: as §1
Experiment [13] concerns NCI-H2405 (Lung Adenocarcinoma). In outline:
as §1

For experiment [14], the system named is NCI-H322M (Lung Adenocarcinoma). In outline: as §1
The subject of experiment [15] is OVISE (Ovarian Carcinoma). In outline:
as §1

The subject of experiment [16] is PFSK-1 (Other Solid Carcinomas). In outline: as §1
In experiment [17] the test system is SCC-3 (B-Cell Non-Hodgkin's Lymphoma). In outline: as §1
Experiment [18] relates to SCC-9 (Oral Cavity Carcinoma). The gist of the method:
as §1

The test system of experiment [19] is U-87-MG (Glioblastoma). In outline:
as §1

Experiment [20] has as its system VMRC-LCD (Lung Adenocarcinoma). In outline: as §1

Regarding `NC1(C(=O)N[C@@H](CCO)c2ccc(Cl)cc2)CCN(c2ncnc3[nH]ccc23)CC1` [Capivasertib] + CCN(CCO)CCCOc1ccc2c(Nc3cc(CC(=O)Nc4cccc(F)c4)[nH]n3)ncnc2c1 [AZD2811] (first compound max 10 µM, 7x7, partner max 1 µM), the “combination Emax” value was 0.324 in [1]; 0.451 in [2]; 0.765 in experiment [3]; 0.395 in experiment [4]; 0.811 in experiment [5]; 0.793 in experiment [6]. The “combination Emax” value in [7] is 0.629; in experiment [8], 0.249; in [9], 0.294; in experiment [10], 0.429; in experiment [11], 0.332; in [12], 0.231. For the same compound, the “combination Emax” value was 0.329 in [13]; 0.338 in [14]; 0.41 in experiment [15]; 0.532 in experiment [16]; 0.309 in [17]; 0.275 in [18]. Also, the “combination Emax” value was 0.648 in experiment [19] and 0.59 in experiment [20].

In the case of `CC1(C)CCC(CN2CCN(c3ccc(C(=O)NS(=O)(=O)c4ccc(NCC5CCOCC5)c([N+](=O)[O-])c4)c(Oc4cnc5[nH]ccc5c4)c3)CC2)=C(c2ccc(Cl)cc2)C1` [Venetoclax] + CN(C)CCCOc1ccc(-c2ccc3ncc4c(c3c2)n(C2CCOCC2)c(=O)n4C)cn1 [AZD0156] (first compound max 1 µM, 7x7, partner max 1 µM), the “combination Emax” value was 0.185 in experiment [1]; 0.229 in experiment [2]; 0.132 in experiment [3]; 0.275 in experiment [4]; 0.389 in [5]; 0.455 in experiment [6]. The “combination Emax” value came out at 0.207 in experiment [7]; 0.145 in [8]; 0.18 in [9]; 0.301 in [10]; 0.352 in experiment [11]; 0.191 in [12]. Besides, the “combination Emax” value in [13] turned out to be 0.14; in [14], 0.31; in experiment [15] it was 0.262; in [16] it was 0.391; in experiment [17], 0.157; in [18], 0.174. Further, the figures for the “combination Emax” value in experiment [19] and in [20] were 0.203 and 0.153, respectively.

For the compound `CC1(C)CCC(CN2CCN(c3ccc(C(=O)NS(=O)(=O)c4ccc(NCC5CCOCC5)c([N+](=O)[O-])c4)c(Oc4cnc5[nH]ccc5c4)c3)CC2)=C(c2ccc(Cl)cc2)C1` [Venetoclax] + C1CN(CCC1(C(=O)N[C@@H](CCO)C2=CC=C(C=C2)Cl)N)C3=NC=NC4=C3C=CN4 [Capivasertib] (first compound max 1 µM, 7x7, partner max 3 µM), the “combination Emax” value was found to be 0.318 in experiment [1]; 0.285 in experiment [2]; 0.62 in [3]; 0.317 in experiment [4]; 0.662 in experiment [5]; 0.365 in [6]. Besides, the “combination Emax” value was 0.452 in [7]; 0.166 in experiment [8]; 0.149 in experiment [9]; 0.329 in experiment [10]; 0.315 in [11]; 0.158 in experiment [12]. Also, the “combination Emax” value in [13] turned out to be 0.187; in experiment [14], 0.167; in experiment [15], 0.456; in [16], 0.518; in [17], 0.131; in experiment [18] it was 0.146. For the same compound, the “combination Emax” value was 0.403 in [19] and 0.193 in experiment [20].

In the case of `Cc1c2c(nn1C)CSCc1cc(n(C)n1)CSc1cc(c3ccccc3c1)OCCCc1c(C(=O)O)n(C)c3c-2c(Cl)ccc13` [AZD5991] + Cc1cc2ncnn2cc1Nc1ncc2c(n1)n(C1CCOCC1)c(=O)n2C [AZD7648] (first compound max 1 µM, 7x7, partner max 10 µM), the “combination Emax” value came out at 0.259 in experiment [1]; 0.358 in experiment [2]; 0.694 in [3]; 0.291 in [4]; 0.936 in experiment [5]; 0.72 in [6]. Besides, the “combination Emax” value in experiment [7] stood at 0.456; in [8], 0.228; in experiment [9], 0.164; in [10], 0.326; in experiment [11] it was 0.342; in experiment [12] it was 0.287. The “combination Emax” value was found to be 0.204 in [13]; 0.459 in experiment [14]; 0.269 in experiment [15]; 1 in experiment [16]; 0.308 in experiment [17]; 0.26 in experiment [18]. Also, the figures for the “combination Emax” value in experiment [19] and in experiment [20] were 0.326 and 0.215, respectively.

In the case of `CC1(C)CCC(CN2CCN(c3ccc(C(=O)NS(=O)(=O)c4ccc(NCC5CCOCC5)c([N+](=O)[O-])c4)c(Oc4cnc5[nH]ccc5c4)c3)CC2)=C(c2ccc(Cl)cc2)C1` [Venetoclax] + CCN(CCO)CCCOc1ccc2c(Nc3cc(CC(=O)Nc4cccc(F)c4)[nH]n3)ncnc2c1 [AZD2811] (first compound max 1 µM, 7x7, partner max 1 µM), the “combination Emax” value in experiment [1] came out at 0.167; in experiment [2], 0.318; in experiment [3], 0.294; in experiment [4] it was 0.225; in experiment [5], 0.707; in experiment [6] it was 0.693. Moreover, the “combination Emax” value is 0.712 in experiment [7]; 0.197 in experiment [8]; 0.184 in experiment [9]; 0.243 in [10]; 0.273 in [11]; 0.145 in experiment [12]. Besides, the “combination Emax” value in [13] was found to be 0.167; in experiment [14], 0.188; in experiment [15] it was 0.311; in [16], 0.304; in experiment [17], 0.31; in [18] it was 0.25. Besides, the “combination Emax” value in experiment [19] stood at 0.265; in experiment [20], 0.626.
